Here are results for four compounds from patent US11660279B2, “Therapeutic agents for treating restless leg syndrome” (INTRABIO LTD, priority 2018, dated 2023).

For assay [1], the system named is patients with restless leg syndrome (RLS). As to the kind of experiment: International Restless Legs Syndrome Rating Scale score (IRLS) in patient case studies. It is filed as in vivo, human. On the set-up: key: IRLS score, 0 (no symptoms) to 40; >30 very severe. An excerpt: RLS severity varies and can be measured using one or more of several scales. A widely reported rating scale known as the International Restless Legs Syndrome Study Group Rating Scale (“IRLS”) was developed by the International Restless Legs Syndrome Study Group (“IRLSSG”) (Walters et al., Validation of the 15 International Restless Legs Syndrome Study Group rating scale for restless legs syndrome. Sleep medicine. 2003 Apr 01; 4(2)1 21-32). The IRLS is a 10-item scale with scores ranging from 0 (no symptoms) to 40. Scores>30 are considered very severe, severe (Score 21-30), moderate (scores 11-20) and […], mild. Use of the scale is common for clinical assessment, research and therapeutic trials with RLS.
Serum creatine kinase activity was only mildly elevated at up to 400 IU/L. The patient was evaluated using the RLS diagnostic index (RLS-DI) (see Walters et al., Sleep Med 2003; 4(2):121-132;). The patient's International Restless Legs Syndrome Rating Scale score (IRLS) was 36, and thus a severe RLS was diagnosed. The patient was started on therapy with acetyl-DL-leucine at a dose of 3 g per day for the first week, followed by a dose of 5 g per day for the second week onwards. Within 14 days on acetyl-DL-leucine, the IRLS dropped to 26, and after another 5 weeks, the IRLS declined to 9. […] Re-introduction of the treatment re-declined the score to 8 after 2 weeks. Continuation of treatment over more than 22 weeks stabilized the IRLS score at 8.
(§1) The patient in this case study was a person showing proximal weakness of the lower limb. […] Upon consultation, they reported no sensory symptoms but complained of a restless leg syndrome at night and during resting periods of the day, occurring over the course of the last eight years. […] Serum creatine kinase activity was mildly elevated at 300 IU/L. Iron measurements and all additional lab investigations were normal. The patient was evaluated using the RLS-DI and the patient's IRLS was 32, and thus a moderate to severe RLS was diagnosed. The patient was started on therapy with acetyl-DL-leucine at a dose of 3 g per day for the first week, followed by a dose of 5 g per day for the second week onwards. Within 14 days on acetyl-DL-leucine, the IRLS dropped to 22, and after another 5 weeks, the IRLS declined to 7. Continuation of treatment over more than 28 weeks stabilized the IRLS score at 8.
(§2) The patient in this case study was a person showing mild proximal weakness of the upper and lower limbs slowly progressive. The patient had been diagnosed (genetically confirmed) with McArdle myopathy about 16 years ago. Upon consultation, they reported no sensory symptoms but complained about a severe fatigue and reduced stamina. The patient further reported a restless leg syndrome at night and during resting periods of the day, occurring over the course of the last 12 years. […] Serum creatine kinase activity was mildly elevated at 200 IU/L; however, the patient had 5 episodes of rhabdomyolysis during the past 20 years. Repeated iron measurements and all additional lab investigations were normal. The patient was evaluated using the RLS-DI and the patient's IRLS was 34, and thus a severe RLS was diagnosed. The patient was started on therapy with acetyl-DL-leucine at a dose of 3 g per day for the first week, followed by a dose of 5 g per day for the second week onwards. Within 21 days on acetyl-DL-leucine, the IRLS dropped to 20, and after another 10 weeks, the IRLS declined to 10. Continuation of treatment over more than 30 weeks stabilized the IRLS score at 10. In addition, the patient's fatigue declined (Fatigue Severit Scale: 9 (minimum) to 63 (maximum)) from 53 to 28.
The patient in this case study was a person showing symptoms of RLS and with RLS of unknown etiology. […]

In assay [2] the test system is patient with RLS and McArdle myopathy. As to the kind of experiment: Fatigue Severity Scale in patient case study. The settings on record: Patient 3; scale 9 (minimum) to 63 (maximum); declined from 53. The class given is in vivo, human.
Description: as §2

The test system of assay [3] is patients with cerebellar ataxia / Niemann-Pick Type C. The conditions noted are these: cited from earlier work.
Assay [4] concerns patients with restless leg syndrome (RLS). Kind of assay: Symptom relief of RLS by pre-treatment (patient history). The class given is in vivo, human. The protocol:
as §1, §2
The patient in this case study was a person showing symptoms of RLS and with RLS of unknown etiology. Upon consultation, they reported no sensory symptoms but complained of a restless leg syndrome at night and during resting periods of the day, occurring over the course of the at least 15 years. […] Iron measurements and all additional lab investigations were normal. The patient was evaluated using the RLS-DI and the patient's IRLS was 32, and thus a moderate to severe RLS was diagnosed. The patient was started on therapy with acetyl-DL-leucine at a dose of 3 g per day for the first week, followed by a dose of 5 g per day for the second week onwards. Within 14 days on acetyl-DL-leucine, the IRLS dropped to 8, and after another 2 weeks, the IRLS declined to 6. Continuation of treatment over more than 4 weeks stabilized the IRLS score at 6.

Assay [5] relates to rat model of an acute unilateral labyrinthectomy. The conditions noted are these: Zwergal 2016, Gunther 2015; cited from earlier work.
Where [6] appears, read: Patient 2, before acetyl-DL-leucine.
Setting [7] is: Patient 3, before acetyl-DL-leucine.
The mark [8] stands for this setting: Patient 4, before acetyl-DL-leucine.

Turning to `CC(=O)NC(CC(C)C)C(=O)O` (racemic) [acetyl-DL-leucine], the IRLS is 9 in assay [1] (Patient 1, baseline 36, after another 5 weeks on 5 g per day); 26 in assay [1] (Patient 1, baseline IRLS 36, 3 g per day first week then 5 g per day, within 14 days); 28 in assay [1] (Patient 1, after interruption of 4 weeks of the treatment after week 12); 8 in assay [1] (Patient 1, continuation of treatment over more than 22 weeks); 8 in assay [1] (Patient 1, re-introduction of the treatment, after 2 weeks); 7 in assay [1] (Patient 2, baseline 32, after another 5 weeks). Besides, the IRLS in assay [1] (Patient 2, baseline IRLS 32, 3 g per day first week then 5 g per day, within 14 days) is 22; in assay [1] (Patient 2, continuation of treatment over more than 28 weeks) it was 8; in assay [1] (Patient 3, baseline 34, after another 10 weeks), 10; in assay [1] (Patient 3, baseline IRLS 34, 3 g per day first week then 5 g per day, within 21 days) it was 20; in assay [1] (Patient 3, continuation of treatment over more than 30 weeks), 10; in assay [1] (Patient 4, baseline 32, after another 2 weeks) it was 6. Further, the IRLS in assay [1] (Patient 4, baseline IRLS 32, 3 g per day first week then 5 g per day, within 14 days) is given as 8; in assay [1] (Patient 4, continuation of treatment over more than 4 weeks), 6. Also, the “Fatigue Severit Scale” value in assay [2] turned out to be 28. Besides, in assay [3] (PET study in patients with ataxia, Becker-Bense et al. (2015)), the “brain metabolism (PET)” value was “increased metabolism in the midbrain and lower brainstem in responders”. The cerebellar ataxia benefit entry in assay [3] (another case series, Pelz et al. (2015)) is listed as “did not find benefit”. In addition, the cerebellar ataxia symptoms entry in assay [3] (case series with cerebellar patients, Strupp et al. (2013)) is “symptomatic improvement of cerebellar ataxia”. The ataxia symptoms entry in assay [3] (one-month study, 12 patients with Niemann-Pick Type C, Bremova et al. (2015)) is listed as “symptomatic improvement of ataxia was shown”. In assay [3] (quantitative gait analysis, patients with cerebellar ataxia, Schniepp et al. (2015)), the temporal gait variability result is “improved temporal gait variability”.
As for `N[C@@H](Cc1ccc(O)c(O)c1)C(=O)O` [L-dopa], the “RLS symptom relief by pre-treatment” value in assay [4] (setting [6]) is on record as “without sustained symptom relief”; in assay [4] (setting [7]) it was “without sustained symptom relief”; in assay [4] (setting [8]), “without sustained relief”.
On to `CC(=O)N[C@@H](CC(C)C)C(=O)O` [N-acetyl-L-leucine], for which the postural compensation result in assay [5] is “significant effect”.
Take `CC(C)C[C@H](CN)CC(=O)O` [pregabaline]: the “RLS symptom relief by pre-treatment” value in assay [4] (setting [6]) was “without sustained symptom relief”; in assay [4] (setting [7]), “without sustained symptom relief”; in assay [4] (setting [8]), “without sustained relief”.
